We go through 37 compounds from PubChem BioAssay AID1247 (Sanford-Burnham Center for Chemical Genomics, 2008).

Each structure is given as a SMILES string. Activity calls are given as the source filed them.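 Rule for the calls: active = EC50 below a set limit, with activity reproduced on retest from dry powder; inactive = the rest.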

The test deals with CSM 14.1 cells, thapsigargin ER-stress death rescue, ATPlite 24 h. In words: potency of ER stress death protectors, SAR follow-up, CSM14.1 cells, ATP luminescence, benzodiazepine series (AID 1247).
In the case of `Cc1ccc(C2Nc3ccccc3NC3=C2C(=O)CC(c2ccc(Cl)cc2)C3)cc1` (configuration not stated), the EC50 was 9.76 µM.
For `COc1ccc(C2CC(=O)C3=C(C2)Nc2ccccc2NC3c2cccc(Cl)c2)cc1` (configuration not stated), the 50% effective concentration (EC50) was 20.7 µM.
The value for `CCOc1cc(C2Nc3ccccc3NC3=C2C(=O)CC(c2ccc(OC)cc2)C3)cc(Cl)c1O` (configuration not stated) was 23.5 µM; that for `COc1ccc(C2CC(=O)C3=C(C2)Nc2ccccc2NC3c2ccc(F)c(F)c2)cc1` (configuration not stated) was 20.9 µM.
In the case of `CCCCOc1ccccc1C1Nc2ccccc2NC2=C1C(=O)CC(c1ccccc1)C2` (configuration not stated) it was 13.2 µM; in that of `COc1ccc(C2CC(=O)C3=C(C2)Nc2ccccc2NC3c2ccccc2[N+](=O)[O-])cc1OC` (configuration not stated), 36.8 µM; in that of `CCN(CC)c1ccc(C2Nc3ccccc3NC3=C2C(=O)CC(c2ccc(OC)cc2)C3)cc1` (configuration not stated), 8.53 µM.
The value for `COc1ccc(C2Nc3ccccc3NC3=C2C(=O)CC(c2ccc(Cl)cc2)C3)cc1` (configuration not stated) was 11.1 µM; that for `COc1ccc(C2CC(=O)C3=C(C2)Nc2ccccc2NC3c2ccncc2)cc1OC` (configuration not stated) was > 100 µM (inactive).
Regarding `COc1ccc(C2CC(=O)C3=C(C2)Nc2ccccc2NC3c2ccccc2OC(C)C)cc1` (configuration not stated), the EC50 was 17.7 µM.
`O=C1CC(c2ccccc2)CC2=C1C(c1ccc(Cl)cc1Cl)Nc1ccccc1N2` (configuration not stated): the EC50 was > 100 µM (inactive).
In the case of `COc1ccc(C2CC(=O)C3=C(C2)Nc2ccccc2NC3c2cccc(Oc3ccccc3)c2)cc1OC` (configuration not stated) it was 8.07 µM; in that of `COc1ccc(C2CC(=O)C3=C(C2)Nc2ccccc2NC3c2cccc(Br)c2)cc1OC` (configuration not stated), 16.9 µM.
The value for `COc1ccc(C2CC(=O)C3=C(C2)Nc2ccccc2NC3c2ccc(O)cc2)cc1` (configuration not stated) was > 100 µM (inactive).
In the case of `COc1ccc(C2CC(=O)C3=C(C2)Nc2ccccc2NC3c2ccccc2Cl)cc1OC` (configuration not stated) it was 40.3 µM; in that of `COc1ccc(C2CC(=O)C3=C(C2)Nc2ccccc2NC3c2cccc(C(F)(F)F)c2)cc1OC` (configuration not stated), 16.6 µM; in that of `CCOc1cc(C2Nc3ccccc3NC3=C2C(=O)CC(c2ccc(OC)cc2)C3)cc(Br)c1O` (configuration not stated), 18 µM.
As for `CSc1ccc(C2Nc3ccccc3NC3=C2C(=O)CC(c2ccccc2)C3)cc1` (configuration not stated), the concentration giving a half-maximal response (EC50) is 13.9 µM.
In the case of `CCOc1cccc(C2Nc3ccccc3NC3=C2C(=O)CC(c2ccc(OC)cc2)C3)c1` (configuration not stated) it was 20.4 µM; in that of `COc1ccc(C2CC(=O)C3=C(C2)Nc2ccccc2NC3c2ccc(NC(C)=O)cc2)cc1` (configuration not stated), > 100 µM (inactive).
The value for `COc1ccc(C2CC(=O)C3=C(C2)Nc2ccccc2NC3c2ccc(-c3ccccc3)cc2)cc1OC` (configuration not stated) was 14.7 µM; that for `O=C1CC(c2ccccc2)CC2=C1C(c1cccc3ccccc13)Nc1ccccc1N2` (configuration not stated) was 16 µM; that for `O=C1CC(c2ccccc2)CC2=C1C(c1c(F)cccc1Cl)Nc1ccccc1N2` (configuration not stated) was 18.1 µM.
The value for `CCCOc1ccc(C2Nc3ccccc3NC3=C2C(=O)CC(c2ccc(OC)c(OC)c2)C3)cc1` (configuration not stated) was 16.2 µM; that for `COc1ccc(C2CC(=O)C3=C(C2)Nc2ccccc2NC3c2c(F)cccc2Cl)cc1` (configuration not stated) was 13.5 µM.
`CC(C)Oc1ccccc1C1Nc2ccccc2NC2=C1C(=O)CC(c1ccc(Cl)cc1)C2` (configuration not stated): the half-maximal effective concentration (EC50) was 6.03 µM.
In the case of `COc1ccc(C2CC(=O)C3=C(C2)Nc2ccccc2NC3c2ccc(C)cc2)cc1OC` (configuration not stated) it was 28.1 µM; in that of `COc1ccc(C2CC(=O)C3=C(C2)Nc2ccccc2NC3c2ccc(C(C)C)cc2)cc1` (configuration not stated), 8.22 µM; in that of `COc1ccc(C2CC(=O)C3=C(C2)Nc2ccccc2NC3c2cc(C)ccc2C)cc1` (configuration not stated), 17.2 µM.
In the case of `COc1ccc(C2CC(=O)C3=C(C2)Nc2ccccc2NC3c2c(Cl)cccc2Cl)cc1` (configuration not stated) it was 24.4 µM.
In the case of `COc1ccc(C2CC(=O)C3=C(C2)Nc2ccccc2NC3c2ccccc2C(F)(F)F)cc1OC` (configuration not stated) it was 17.4 µM.
For the compound `COc1ccc(C2CC(=O)C3=C(C2)Nc2ccccc2NC3c2ccccc2C)cc1OC` (configuration not stated), the EC50 is 35.8 µM.
As to `COc1ccc(C2CC(=O)C3=C(C2)Nc2ccccc2NC3c2cccc(O)c2)cc1` (configuration not stated), the EC50 was > 100 µM (inactive).
In the case of `COc1ccc(C2CC(=O)C3=C(C2)Nc2ccccc2NC3c2c(F)cccc2F)cc1` (configuration not stated) it was 33 µM; in that of `CCN(CC)c1ccc(C2Nc3ccccc3NC3=C2C(=O)CC(c2ccccc2)C3)cc1` (configuration not stated), 7.15 µM; in that of `Cc1ccc(C2Nc3ccccc3NC3=C2C(=O)CC(c2ccccc2)C3)cc1` (configuration not stated), 19.2 µM.
As for `COc1ccc(C2CC(=O)C3=C(C2)Nc2ccccc2NC3c2ccc3ccccc3c2)cc1` (configuration not stated), the 50% effective concentration (EC50) was 11.5 µM.
